Test results taken from publication PMC10866072, “Design, synthesis, molecular modelling and biological evaluation of novel 6-amino-5-cyano-2-thiopyrimidine derivatives as potent anticancer agents against leukemia and apoptotic inducers” (Journal of Enzyme Inhibition and Medicinal Chemistry, 2024).

Legend:
SK-MEL-5 = type: cell-based; settings: Homo sapiens, one dose 10^-5 M, 48 h, read-out: % growth
SF-268 = type: cell-based; settings: Homo sapiens, one dose 10^-5 M, 48 h, read-out: % growth
NCI-H23 = type: cell-based; settings: Homo sapiens, one dose 10^-5 M, 48 h, read-out: % growth
DU-145 = type: cell-based; settings: Homo sapiens, one dose 10^-5 M, 48 h
HT29 = type: cell-based; settings: Homo sapiens, HT-29, one dose 10^-5 M, 48 h
HOP-92 = type: cell-based; settings: Homo sapiens, one dose 10^-5 M, 48 h
NCI/ADR-RES = type: cell-based; settings: Homo sapiens, one dose 10^-5 M, 48 h
SK-MEL-28 = type: cell-based; settings: Homo sapiens, one dose 10^-5 M, 48 h
SNB-19 = type: cell-based; settings: Homo sapiens, one dose 10^-5 M, 48 h, read-out: % growth
MDA-MB-231/ATCC = type: cell-based; settings: Homo sapiens, one dose 10^-5 M, 48 h
MDA-MB-468 = type: cell-based; settings: Homo sapiens, one dose 10^-5 M, 48 h
UACC-62 = type: cell-based; settings: Homo sapiens, one dose 10^-5 M, 48 h
SF-295 = type: cell-based; settings: Homo sapiens, one dose 10^-5 M, 48 h
K-562 = type: cell-based; settings: Homo sapiens, K562, one dose 10^-5 M, 48 h
SN12C = type: cell-based, human; settings: Homo sapiens, one dose 10^-5 M, 48 h
MDA-MB-435 = type: cell-based; settings: Homo sapiens, one dose 10^-5 M, 48 h, read-out: % growth
OVCAR-4 = type: cell-based; settings: Homo sapiens, one dose 10^-5 M, 48 h
HCC-2998 = type: cell-based; settings: Homo sapiens, one dose 10^-5 M, 48 h
CCRF-CEM = type: cell-based; settings: Homo sapiens, one dose 10^-5 M, 48 h
M14 = type: cell-based; settings: Homo sapiens, one dose 10^-5 M, 48 h
NCI-H460 = type: cell-based; settings: Homo sapiens, one dose 10^-5 M, 48 h, read-out: % growth
HL-60(TB) = type: cell-based; settings: Homo sapiens, one dose 10^-5 M, 48 h
LOX IMVI = type: cell-based; settings: Homo sapiens, one dose 10^-5 M, 48 h, read-out: % growth
HS 578T = type: cell-based; settings: Homo sapiens; one dose 10^-5 M, 48 h; HS 578T; read-out: % growth
UO-31 = type: cell-based; settings: Homo sapiens, UO-31, 48 h, one dose 10^-5 M, 48 h
U251 = type: cell-based; settings: Homo sapiens, U-251, one dose 10^-5 M, 48 h
NCI-H226 = type: cell-based; settings: Homo sapiens, one dose 10^-5 M, 48 h
SF-539 = type: cell-based; settings: Homo sapiens, one dose 10^-5 M, 48 h
TK-10 = type: cell-based; settings: Homo sapiens, one dose 10^-5 M, 48 h
COLO 205 = type: cell-based; settings: Homo sapiens, one dose 10^-5 M, 48 h
786-0 = type: cell-based; settings: Homo sapiens, one dose 10^-5 M, 48 h
EKVX = type: cell-based; settings: Homo sapiens, one dose 10^-5 M, 48 h
[1] = test system: full NCI 60 cell lines panel
OVCAR-5 = type: cell-based; settings: Homo sapiens, one dose 10^-5 M, 48 h
NCI-H522 = type: cell-based; settings: Homo sapiens, one dose 10^-5 M, 48 h
HOP-62 = type: cell-based; settings: Homo sapiens, one dose 10^-5 M, 48 h
KM12 = type: cell-based; settings: Homo sapiens, one dose 10^-5 M, 48 h
T-47D = type: cell-based; settings: Homo sapiens, T47D, one dose 10^-5 M, 48 h, read-out: % growth
SW-620 = type: cell-based; settings: Homo sapiens, one dose 10^-5 M, 48 h
UACC-257 = type: cell-based; settings: Homo sapiens, one dose 10^-5 M, 48 h
MCF7 = type: cell-based; settings: Homo sapiens, one dose 10^-5 M, 48 h, read-out: % growth
CAKI-1 = type: cell-based; settings: Homo sapiens, CAKI-1, 48 h, one dose 10^-5 M, 48 h
SR = type: cell-based; settings: Homo sapiens, one dose 10^-5 M, 48 h
IGROV1 = type: cell-based; settings: Homo sapiens, IGROV-1, one dose 10^-5 M, 48 h, read-out: % growth
HCT-15 = type: cell-based; settings: Homo sapiens, one dose 10^-5 M, 48 h, read-out: % growth
OVCAR-8 = type: cell-based; settings: Homo sapiens, one dose 10^-5 M, 48 h
SNB-75 = type: cell-based; settings: Homo sapiens, one dose 10^-5 M, 48 h
BT-549 = type: cell-based; settings: Homo sapiens, one dose 10^-5 M, 48 h
ACHN = type: cell-based; settings: Homo sapiens, one dose 10^-5 M, 48 h
MALME-3M = type: cell-based; settings: Homo sapiens, one dose 10^-5 M, 48 h
PC-3 = type: cell-based; settings: Homo sapiens, one dose 10^-5 M, 48 h
A498 = type: cell-based; settings: Homo sapiens, one dose 10^-5 M, 48 h
HCT-116 = type: cell-based; settings: Homo sapiens, one dose 10^-5 M, 48 h, read-out: % growth
SK-MEL-2 = type: cell-based; settings: Homo sapiens, one dose 10^-5 M, 48 h
SK-OV-3 = type: cell-based; settings: Homo sapiens, one dose 10^-5 M, 48 h
OVCAR-3 = type: cell-based; settings: Homo sapiens, one dose 10^-5 M, 48 h
A549/ATCC = type: cell-based; settings: Homo sapiens, one dose 10^-5 M, 48 h
MOLT-4 = type: cell-based; settings: Homo sapiens, one dose 10^-5 M, 48 h, read-out: % growth
RPMI-8226 = type: cell-based; settings: Homo sapiens, one dose 10^-5 M, 48 h

Question: For CN(C)c1ccc(-c2nc(S)nc(N)c2C(=N)NN=Cc2ccc(Cl)cc2Cl)cc1 [Compound 4f, 4-amino-N'-[(2,4-dichlorophenyl)methylene]-6-[4-(dimethylamino)phenyl]-2-mercapto pyrimidine-5-carboximidohydrazide], which activity at 10 µM (SK-MEL-5) is on record?
Answer: 99.3%

Question: What about the activity at 10 µM (SF-268) of the same molecule?
Answer: 100%

Question: What about the activity at 10 µM (NCI-H23) of the same molecule?
Answer: 99.6%

Question: And the % growth at 10 µM (DU-145)?
Answer: 111%

Question: And the % growth at 10 µM (HT29)?
Answer: 107%

Question: What about the % growth at 10 µM (HOP-92) of the same molecule?
Answer: 106%

Question: And the cell growth percent at 10 µM (NCI/ADR-RES)?
Answer: 101%

Question: What about the % cell growth at 10 µM (SK-MEL-28) of the same molecule?
Answer: 104%

Question: What about the activity at 10 µM (SNB-19) of the same molecule?
Answer: 90.4%

Question: And the % growth at 10 µM (MDA-MB-231/ATCC)?
Answer: 99.5%

Question: And the percent cell growth at 10 µM (MDA-MB-468)?
Answer: 113%

Question: And the % growth at 10 µM (UACC-62)?
Answer: 92.3%

Question: And the % cell growth at 10 µM (SF-295)?
Answer: 92.7%

Question: What about the % growth at 10 µM (K-562) of the same molecule?
Answer: 70.2%

Question: And the % growth at 10 µM (SN12C)?
Answer: 93.7%

Question: And the activity at 10 µM (MDA-MB-435)?
Answer: 91.8%

Question: What about the % growth at 10 µM (OVCAR-4) of the same molecule?
Answer: 104%

Question: And the % growth at 10 µM (HCC-2998)?
Answer: 115%

Question: And the % cell growth at 10 µM (CCRF-CEM)?
Answer: 83.7%

Question: What about the % growth at 10 µM (M14) of the same molecule?
Answer: 103%

Question: And the activity at 10 µM (NCI-H460)?
Answer: 116%

Question: What about the % growth at 10 µM (HL-60(TB)) of the same molecule?
Answer: 88.4%

Question: What about the activity at 10 µM (LOX IMVI) of the same molecule?
Answer: 83.3%

Question: And the activity at 10 µM (HS 578T)?
Answer: 96.8%

Question: And the % cell growth at 10 µM (UO-31)?
Answer: 70.2%

Question: What about the % growth at 10 µM (U251) of the same molecule?
Answer: 93.2%

Question: And the % growth at 10 µM (NCI-H226)?
Answer: 95.5%

Question: What about the % growth at 10 µM (SF-539) of the same molecule?
Answer: 81.6%

Question: What about the % cell growth at 10 µM (TK-10) of the same molecule?
Answer: 114%

Question: And the % growth at 10 µM (COLO 205)?
Answer: 166%

Question: And the % growth at 10 µM (786-0)?
Answer: 84.9%

Question: And the % cell growth at 10 µM (EKVX)?
Answer: 102%

Question: And the activity at 10 µM ([1]; Homo sapiens, 60 cell, 48 h, read-out: Mean % growth)?
Answer: 98.9%

Question: And the “activity on all 60 cancer cell lines tested (in words)” value ([1]; one dose)?
Answer: weak activity

Question: What about the percent cell growth at 10 µM (OVCAR-5) of the same molecule?
Answer: 107%

Question: What about the % growth at 10 µM (NCI-H522) of the same molecule?
Answer: 97.2%

Question: What about the % growth at 10 µM (HOP-62) of the same molecule?
Answer: 103%

Question: What about the % growth at 10 µM (KM12) of the same molecule?
Answer: 77.5%

Question: What about the activity at 10 µM (T-47D) of the same molecule?
Answer: 104%

Question: And the % growth at 10 µM (SW-620)?
Answer: 100%

Question: What about the percent cell growth at 10 µM (UACC-257) of the same molecule?
Answer: 109%

Question: And the activity at 10 µM (MCF7)?
Answer: 75.3%

Question: And the % growth at 10 µM (CAKI-1)?
Answer: 102%

Question: And the percent cell growth at 10 µM (SR)?
Answer: 73.2%

Question: And the activity at 10 µM (IGROV1)?
Answer: 102%

Question: And the activity at 10 µM (HCT-15)?
Answer: 76.7%

Question: And the % growth of cells at 10 µM (OVCAR-8)?
Answer: 106%

Question: And the % growth at 10 µM (SNB-75)?
Answer: 109%

Question: And the % cell growth at 10 µM (BT-549)?
Answer: 119%

Question: What about the % growth at 10 µM (ACHN) of the same molecule?
Answer: 107%

Question: And the % growth at 10 µM (MALME-3M)?
Answer: 96.8%

Question: What about the percent cell growth at 10 µM (PC-3) of the same molecule?
Answer: 89.8%

Question: And the % growth at 10 µM (A498)?
Answer: 114%

Question: What about the activity at 10 µM (HCT-116) of the same molecule?
Answer: 67.7%

Question: And the % growth at 10 µM (SK-MEL-2)?
Answer: 108%

Question: What about the % growth at 10 µM (SK-OV-3) of the same molecule?
Answer: 125%

Question: And the % growth at 10 µM (OVCAR-3)?
Answer: 110%

Question: And the % growth at 10 µM (A549/ATCC)?
Answer: 107%

Question: What about the activity at 10 µM (MOLT-4) of the same molecule?
Answer: 100%

Question: And the % growth at 10 µM (RPMI-8226)?
Answer: 80.6%
